Experimental data: article PMC10914731, “Homo-BacPROTAC-induced degradation of ClpC1 as a strategy against drug-resistant mycobacteria” (Nature Communications, 2024)
Converted amounts (≈) assume the structure as drawn. “And” between values parts separate entries of the source, which are not always exact repeats. Identical values can stand only once. Like-named read-outs stand apart in the source and are kept apart here.

Experiments:
[1] = tested on: M. tuberculosis H37Rv (ATCC 27294); assay: microbe, parasite or virus in culture; type: cell-based
Msm 700084 = assay: microbe, parasite or virus in culture; type: cell-based
[2] = type: in vitro ADME, Rat; conditions: rat, pH 7.4
[3] = Hepatocyte stability, mice; type: in vitro ADME; conditions: mouse, pH 7.4
Procedure, shortened: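 Cryopreserved mouse hepatocytes (about 1 million cells/mL, pH 7.4, 50% species serum) incubated with 1 µM compound, DMSO <0.05%, at 37 °C for up to 6 h, sampled at 6 time points. Parent remaining measured by HPLC-MS/MS; half-life converted via well-stirred liver model to clearance as % Qh.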

[4] = type: in vitro ADME, Human; conditions: human, pH 7.4
in vitro = conditions: human
Procedure, shortened: (§1)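 Permeability across Caco-2 monolayers was measured in both directions, apical-to-basolateral and basolateral-to-apical, in 10^-6 cm s-1. Efflux ratio = P(B−A)/P(A−B). Intrinsic permeability is the mean of P(A−B) and P(B−A).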

Caco-2 monolayers = assay: in vitro; conditions: human, Caco-2
Procedure, shortened: as §1

[5] = target: ClpC1 NTD protein (M. tuberculosis) (Mycobacterium tuberculosis, UniProt P9WPC9); assay: biochemical; type: binding; conditions: SPR
ClpC1 NTD protein (M. tuberculosis), sequence (P9WPC9 1-156, looked up, natural form): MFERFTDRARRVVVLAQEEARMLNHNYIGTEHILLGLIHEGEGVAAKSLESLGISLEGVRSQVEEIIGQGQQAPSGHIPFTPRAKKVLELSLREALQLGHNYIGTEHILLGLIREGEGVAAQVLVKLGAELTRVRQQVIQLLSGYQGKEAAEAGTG

Msm 607 = assay: microbe, parasite or virus in culture; type: cell-based
[6] = Microsomal stability, human; type: in vitro ADME
Procedure, shortened: (§2)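 Clearance values are expressed as % of liver blood flow, derived from first-order half-lives using the well-stirred liver model. Depletion of 1 µmol/l compound is followed by HPLC-MS/MS in NADPH-supplemented microsomes (0.5 mg/ml) at 37 °C, pH 7.5.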

[7] = tested on: Mtb H37Rv in THP-1 macrophages; assay: Intracellular MIC assay in THP-1 macrophages; type: cell-based, Mycobacterium tuberculosis; design: Emax: unit not given here
[8] = type: in vitro ADME, Mice; conditions: clearance in microsomes
Procedure, shortened: as §2

[9] = target: His6-tagged ClpC1-NTD substrate, M. smegmatis ClpC1P1P2 (UniProt A0R574+P9WPC9); assay: biochemical; type: biochemical; conditions: Msm
His6-tagged ClpC1-NTD substrate, M. smegmatis ClpC1P1P2, sequence (P9WPC9 1-156, looked up, natural form): as above
His6-tagged ClpC1-NTD substrate, M. smegmatis ClpC1P1P2, sequence (A0R574 whole entry): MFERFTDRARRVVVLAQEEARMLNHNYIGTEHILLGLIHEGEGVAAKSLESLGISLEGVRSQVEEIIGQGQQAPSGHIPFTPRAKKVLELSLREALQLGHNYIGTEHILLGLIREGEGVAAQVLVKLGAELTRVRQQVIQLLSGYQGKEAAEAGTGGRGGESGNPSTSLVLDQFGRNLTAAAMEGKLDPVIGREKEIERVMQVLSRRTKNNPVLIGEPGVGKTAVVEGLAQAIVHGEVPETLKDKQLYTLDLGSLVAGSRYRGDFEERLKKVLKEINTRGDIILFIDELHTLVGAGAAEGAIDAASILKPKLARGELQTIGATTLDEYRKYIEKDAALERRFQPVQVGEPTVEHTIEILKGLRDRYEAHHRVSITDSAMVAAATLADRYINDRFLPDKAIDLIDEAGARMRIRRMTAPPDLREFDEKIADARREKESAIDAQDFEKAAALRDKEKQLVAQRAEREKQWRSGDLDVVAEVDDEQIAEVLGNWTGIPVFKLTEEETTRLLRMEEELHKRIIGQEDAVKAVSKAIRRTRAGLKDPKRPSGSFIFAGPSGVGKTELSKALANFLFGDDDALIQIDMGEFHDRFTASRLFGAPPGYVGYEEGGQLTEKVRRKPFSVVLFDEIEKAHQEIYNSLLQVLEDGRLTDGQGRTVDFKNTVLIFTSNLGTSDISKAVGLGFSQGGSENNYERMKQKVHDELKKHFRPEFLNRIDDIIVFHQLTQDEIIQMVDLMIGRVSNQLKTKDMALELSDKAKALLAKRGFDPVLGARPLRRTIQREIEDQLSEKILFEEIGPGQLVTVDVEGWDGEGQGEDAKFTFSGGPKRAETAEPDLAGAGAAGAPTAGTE

[10] = target: ClpC1-NTD substrate, M. tuberculosis ClpC1P1P2 (Mycobacterium tuberculosis, UniProt P9WPC9); assay: biochemical; type: biochemical; conditions: Mtb
ClpC1-NTD substrate, M. tuberculosis ClpC1P1P2, sequence (P9WPC5 whole entry): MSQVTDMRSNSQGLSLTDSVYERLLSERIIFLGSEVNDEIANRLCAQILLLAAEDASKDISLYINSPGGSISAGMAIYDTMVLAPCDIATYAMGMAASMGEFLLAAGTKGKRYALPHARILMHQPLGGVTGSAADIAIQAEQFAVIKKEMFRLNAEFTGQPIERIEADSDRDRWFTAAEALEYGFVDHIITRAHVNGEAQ
ClpC1-NTD substrate, M. tuberculosis ClpC1P1P2, sequence (P9WPC9 whole entry): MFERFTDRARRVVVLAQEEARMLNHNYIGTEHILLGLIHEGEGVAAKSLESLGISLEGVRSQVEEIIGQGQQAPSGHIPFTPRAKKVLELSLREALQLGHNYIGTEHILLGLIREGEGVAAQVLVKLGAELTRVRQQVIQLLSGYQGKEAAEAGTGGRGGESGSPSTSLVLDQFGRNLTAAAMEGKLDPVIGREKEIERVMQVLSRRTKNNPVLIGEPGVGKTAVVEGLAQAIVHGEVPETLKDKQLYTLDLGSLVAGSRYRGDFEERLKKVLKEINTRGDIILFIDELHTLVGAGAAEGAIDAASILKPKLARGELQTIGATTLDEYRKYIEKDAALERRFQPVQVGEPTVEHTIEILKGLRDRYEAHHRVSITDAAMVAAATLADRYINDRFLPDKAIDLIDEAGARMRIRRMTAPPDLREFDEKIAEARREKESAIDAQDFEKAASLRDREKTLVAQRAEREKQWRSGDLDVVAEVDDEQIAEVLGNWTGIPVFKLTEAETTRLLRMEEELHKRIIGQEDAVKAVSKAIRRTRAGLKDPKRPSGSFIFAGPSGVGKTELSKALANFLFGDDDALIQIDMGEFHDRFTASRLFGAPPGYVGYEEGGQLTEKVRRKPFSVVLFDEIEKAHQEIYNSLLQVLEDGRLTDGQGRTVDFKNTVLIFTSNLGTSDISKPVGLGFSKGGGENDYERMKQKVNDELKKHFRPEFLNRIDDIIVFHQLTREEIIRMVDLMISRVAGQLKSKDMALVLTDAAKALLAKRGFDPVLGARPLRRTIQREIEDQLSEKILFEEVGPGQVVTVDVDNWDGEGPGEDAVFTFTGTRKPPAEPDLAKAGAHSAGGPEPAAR
ClpC1-NTD substrate, M. tuberculosis ClpC1P1P2, sequence (P9WPC3 whole entry, further chain): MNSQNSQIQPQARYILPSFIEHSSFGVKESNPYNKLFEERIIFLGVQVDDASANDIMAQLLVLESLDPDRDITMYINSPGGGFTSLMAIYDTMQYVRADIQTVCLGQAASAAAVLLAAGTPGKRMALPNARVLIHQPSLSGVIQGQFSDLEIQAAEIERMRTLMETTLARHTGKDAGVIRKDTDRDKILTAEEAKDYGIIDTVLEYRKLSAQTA

[11] = type: in vitro ADME, Rat
Procedure, shortened: as §2

[12] = mean of the measurements, read-out: 1-Dmax, Mean
[13] = mean of the measurements, read-out: DC50, Mean

CO[C@H](c1ccccc1)[C@@H]1NC(=O)[C@H](C)NC(=O)[C@H](C[C@@H](C)CO)N(C)C(=O)[C@H](Cc2cn(C)c3ccccc23)NC(=O)[C@H](Cc2cn(CCOCCOCCn3cc(C[C@@H]4NC(=O)[C@H](CC(C)C)N(C)C(=O)[C@H](C(C)C)NC(=O)[C@H]([C@H](OC)c5ccccc5)NC(=O)[C@H](C)NC(=O)[C@H](C[C@@H](C)CO)N(C)C(=O)[C@H](Cc5cn(C)c6ccccc56)NC4=O)nn3)nn2)NC(=O)[C@H](CC(C)C)N(C)C(=O)[C@H](C(C)C)NC1=O [Compound 11] showed an MIC ([1]; Mycobacterium tuberculosis, M. tuberculosis H37Rv strain, read-out: MIC Mtb H37Rv Mean ± SD) of 0.1 µM (≈ 0.203 µg/mL), an MIC ([1]; Mycobacterium tuberculosis, Mtb H37Rv (Supplementary Table 2), read-out: MIC Mtb) of 0.1 µM (≈ 0.203 µg/mL) and an MIC ([1]; Mycobacterium tuberculosis, individual measurements (source data), read-out: Mtb MIC) of 0.097 µM (≈ 0.197 µg/mL). For the same compound, the MIC ([1]; Mycobacterium tuberculosis, single determinations, read-out: Mtb MIC) was 0.097 µM (≈ 0.197 µg/mL), the MIC ([1]; individual measurements (source data), read-out: Mtb MIC) was 0.097 µM (≈ 0.197 µg/mL) and the MIC (Msm 700084; Mycolicibacterium smegmatis, 700084, single determinations, read-out: Msm 700084 MIC) was 1.56 µM (≈ 3.16 µg/mL). For the same compound, the MIC (Msm 700084; Mycolicibacterium smegmatis, 700084, read-out: MIC Msm 700084) was 1.6 µM (≈ 3.24 µg/mL), the “Hepatocyte Rat” value [2] was 6 %Qh and the “Hepatocyte Stability Rat QH” value [2] was 6.192%. For the same compound, the “Hepatocyte Mice” value [3] was 15 %Qh, the “Hepatocyte Human” value [4] was 12 %Qh and the “Hepatocyte Stability Human QH” value [4] was 12.386%. It also gave an efflux ratio (in vitro; Caco-2) of 2.6, a Papp B→A (in vitro; Caco-2, CACO permeability PEBA) of 0.36 ×10⁻⁶ cm/s and a Papp A→B (in vitro; Caco-2, Caco-2 permeability P (A-B)) of 1.6 ×10⁻⁶ cm/s. The Papp B→A (in vitro; Caco-2, Caco-2 permeability P (B-A)) was 4.2 ×10⁻⁶ cm/s, the “Caco-2 Int. Perm” value (Caco-2 monolayers) was 2.9 and the Kd ([5]; individual measurements (source data), read-out: KD ClpC1-NTD) was 0.306 nM and 0.313 nM and 0.72 nM and 0.499 nM and 0.412 nM and 0.253 nM and 0.262 nM. For the same compound, the “koff ClpC1-NTD” value ([5]; single independent measurements) was 0.0009 s⁻¹ and 0.0004 s⁻¹, the Kd ([5]; read-out: ClpC1-NTD KD Mean ± SD) was 0.4 ± 0.2 nM and the MIC (Msm 607; Mycolicibacterium smegmatis, 607, read-out: MIC Msm 607) was 1.6 µM (≈ 3.24 µg/mL). The MIC (Msm 607; Mycolicibacterium smegmatis, 607, read-out: Msm 607 MIC, single determinations) was 1.56 µM (≈ 3.16 µg/mL), the “Microsomal Stability Human QH” value ([6]; Human) was less than 24.4% and the “Microsomal Stability Human” value ([6]; clearance in microsomes) was less than 24 %Qh. For the same compound, the Emax [7] was 0.51, the “Microsomal Stability Mice” value [8] was less than 24 %Qh and the “1-Dmax, single measurements” value ([9]; Measurement 1-6) was 84.8% and 87.6% and 91.1%. The 1-Dmax (percent substrate remaining at maximal degradation) ([9]; Measurement 1-6, read-out: 1-Dmax, single measurements) was 85.6%, the DC50 ([9]; Measurement 1-6, read-out: DC50, single measurements) was 7400 nM and 6100 nM and 5000 nM and 3900 nM and the 1-Dmax (percent substrate remaining at maximal degradation) [9, 12] was 87%. For the same compound, the DC50 [9, 13] was 5600 nM, the “1-Dmax, single measurements” value ([10]; Measurement 1-4) was 69.6% and the 1-Dmax (percent substrate remaining at maximal degradation) ([10]; Measurement 1-4, read-out: 1-Dmax, single measurements) was 77.4%. For the same compound, the DC50 ([10]; Measurement 1-4, read-out: DC50, single measurements) was 4700 nM and 5400 nM, the 1-Dmax (percent substrate remaining at maximal degradation) [10, 12] was 74% and the DC50 [10, 13] was 5100 nM. The “Microsomal Stability Rat QH” value ([11]; Rat) was less than 23.1% and the “Microsomal Stability Rat” value ([11]; clearance in microsomes) was less than 23 %Qh.
